Read-outs that look alike come from different tables or passages of the source.
Molecular target: T1, human Syk (GST-Syk) (Homo sapiens, UniProt P43405)
T1 construct: A cDNA fragment encoding human Syk openreading frame was cloned; made in house; host or cells: Sf21 insect cells (baculovirus, transfer vector pAcG2T)
Assay: Syk tyrosine kinase inhibitory assay
Format: biochemical
Summary of the method: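 Readout: streptavidin-captured biotin-AL peptide probed with europium-4G10 anti-phosphotyrosine, time-resolved fluorescence (ex 340/em 615 nm). Reaction ran 1 h at room temperature with 30 μM ATP, 3 μM peptide, 0.65 nM Sf21-expressed GST-Syk and 0.25% DMSO, pH 8.0.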

[1] = in vitro, compounds as yielded by solid phase synthesis, purity about 40 to 90%, read-out: Activity grade (IC50 class)
[2] = Table 17, IC50 classes, read-out: Activity grade
[3] = Table 16, read-out: Activity grade
[4] = Table 11, read-out: Activity grade
[5] = Table 13, read-out: Activity grade
[6] = in vitro, compounds as yielded by solid phase synthesis, purity about 40 to 90%

Structure (SMILES) | IC50 [1] [nM] | other results
COc1ccc(-c2cc3nccn3c(N3CCC(C#N)(c4ccccc4)CC3)n2)cc1OC [Example 9-68] | 2000 to 10000 | –
CNc1nc(-c2ccc(OC)c(OC)c2)cc2nccn12 [Example 9-12] | 500 to 2000 | –
COc1ccc(-c2cc3nccn3c(N3CCC(O)(c4ccc(Cl)cc4)CC3)n2)cc1OC [Example 9-64] | 2000 to 10000 | –
COc1ccc(-c2cc3nccn3c(Nc3ccccc3)n2)cc1N [compound 1] | – | IC50 [2]: 500 to 2000 nM
COc1ccc(-c2cc3nccn3c(N(C(C)=O)c3ccccc3)n2)cc1OC(C)=O [Example 10] | < 500 | IC50 [2]: 2000 to 10000 nM
CCSc1nc(-c2ccc(OCCOC)c(OC)c2)cc2nccn12 [Example 17-10] | – | IC50 [3]: 500 to 2000 nM
COC(=O)[C@H](Cc1ccc(O)cc1)Nc1nc(-c2ccc(OC)c(OC)c2)cc2nccn12 [Example 9-2] | 2000 to 10000 | –
COc1ccc(-c2cc3nccn3c(Nc3cccc(N)n3)n2)cc1OC [Example 12-29] | – | IC50 [4]: < 500 nM
COc1cc(-c2cc3nccn3c(Nc3ccccc3)n2)ccc1NCCCN1CCN(C)CC1 [Example 12-39] | – | IC50 [4]: < 500 nM
COc1ccc(-c2cc3nccn3c(Nc3ccccc3)n2)cc1OCc1ccccc1 [Example 12-27] | – | IC50 [4]: 2000 to 10000 nM
COc1ccc(-c2cc3nccn3c(SCc3ccc(Cl)cc3)n2)cc1OC [Example 14-15] | – | IC50 [5]: 500 to 2000 nM
COc1ccc(-c2cc3nccn3c(Nc3ccc(Cl)nc3)n2)cc1OC [Example 12-30] | – | IC50 [4]: < 500 nM
CCSc1nc(-c2ccc(S(=O)(=O)NCCN(C)C)c(OC)c2)cc2nccn12 [Example 2-8] | – | Activity grade (IC50 class) [6]: C-D
COc1ccc(-c2cc3nccn3c(N(C)c3ccccn3)n2)cc1OC [compound 4] | – | IC50 [2]: 2000 to 10000 nM
CCOc1ccc(-c2cc3nccn3c(SCC)n2)cc1OC [Example 3-1] | < 500 | –
COc1ccc(-c2cc3nccn3c(NCCN3CCCCC3)n2)cc1OC [Example 9-82] | 2000 to 10000 | –
CCSc1nc(-c2ccc(NCCCN3CCN(C)CC3)c(OC)c2)cc2nccn12 [Example 17-4] | – | IC50 [3]: < 500 nM
CCOCCOc1ccc(-c2cc3nccn3c(Nc3ccccc3)n2)cc1OC [Example 12-20] | – | IC50 [4]: < 500 nM
CCSc1nc(-c2ccc3c(c2)OCO3)cc2nccn12 [Example 1-3] | 500 to 2000 | –
c1ccc(Sc2nc(-c3ccccc3)cc3ncnn23)cc1 [Example 14-7] | – | IC50 [5]: 2000 to 10000 nM
CCOCCOc1cc(-c2cc3nccn3c(Nc3ccccc3)n2)ccc1OC [Example 12-28] | – | IC50 [4]: < 500 nM
CCSc1nc(-c2ccc(OC)c(N(C)CCCN(C)C)c2)cc2nccn12 [Example 17-5] | – | IC50 [3]: 500 to 2000 nM

Structure (SMILES) | IC50 [1] [nM] | other results
COc1ccc(-c2cc3nccn3c(N3CCC(Cc4ccccc4)CC3)n2)cc1OC [Example 9-59] | – | Activity grade (IC50 class) [6]: C-D
CCSc1nc(-c2ccc(OCCCN3CCCCC3)c(OC)c2)cc2nccn12 [Example 5-7] | < 500 | –
COc1cc(-c2cc3nccn3c(Nc3ccccc3S(N)(=O)=O)n2)ccc1OCCN1CCOCC1 [Example 9-97] | – | Activity grade (IC50 class) [6]: C-D
CCSc1nc(-c2ccc3c(c2)OCCO3)cc2nccn12 [Example 1-13] | 500 to 2000 | –
CCSc1nc(-c2ccc(OCc3ccc(OC)cc3)c(OC)c2)cc2nccn12 [Example 3-3] | 500 to 2000 | –
CCSc1nc(-c2ccc(OC)c(NC)c2)cc2nccn12 [Example 17-2] | – | IC50 [3]: 500 to 2000 nM
CCSc1nc(-c2ccc(OC)c(OCCCN3CCSCC3)c2)cc2nccn12 [Example 5-10] | 500 to 2000 | –
COc1ccc(Nc2nc(-c3ccc(N4CCOCC4)c(OC)c3)cc3nccn23)cc1 [Example 12-37] | – | IC50 [4]: < 500 nM
Clc1ccc(-c2cc3ncnn3c(Sc3ccccc3)n2)cn1 [Example 14-9] | – | Activity grade (Table 13): C-D
COc1cc(-c2cc3nccn3c(Nc3ccccc3)n2)ccc1O [Example 12-19] | – | IC50 [4]: < 500 nM
CCSc1nc(-c2ccc(OC(C)=O)c(OC)c2)cc2nccn12 [Example 3-7] | < 500 | –
COc1ccc(-c2cc3nccn3c(SCc3ccccc3)n2)cc1OC [Example 14-2] | – | IC50 [5]: < 500 nM
COc1ccc(N2CCN(c3nc(-c4ccc(OC)c(OC)c4)cc4nccn34)CC2)cc1 [Example 9-40] | 2000 to 10000 | –
COc1ccc(-c2cc3nccn3c(Sc3ccc(CCc4nnn[nH]4)cc3)n2)cc1OC [Example 24] | – | IC50 [2]: < 500 nM
COc1ccc(Nc2nc(-c3ccc(NCCCN4CCOCC4)c(OC)c3)cc3nccn23)cc1 [Example 12-38] | – | IC50 [4]: < 500 nM
COc1ccc(-c2cc3nccn3c(Nc3ccccc3)n2)cc1O [Example 12-10] | – | IC50 [4]: < 500 nM
CCSc1nc(-c2ccc(NCCN(C)C)c(OC)c2)cc2nccn12 [Example 17-7] | – | IC50 [3]: 500 to 2000 nM
COc1ccc(-c2cc3nccn3c(SC3C=CCCC3)n2)cc1OC (stereo not shown) [Example 9-6] | < 500 | –
CCN(CC)CCOc1ccc(-c2cc3nccn3c(Nc3ccccc3)n2)cc1OC [Example 12-35] | – | IC50 [4]: 2000 to 10000 nM
COc1ccc(-c2cc3nccn3c(Nc3cccc(Cl)c3)n2)cc1OC [Example 12-11] | – | IC50 [4]: < 500 nM
c1ccc(Nc2nc(-c3ccc4c(c3)OCCO4)cc3nccn23)cc1 [Example 12-21] | – | IC50 [4]: 500 to 2000 nM
C=CCOc1ccc(-c2cc3nccn3c(SCC)n2)cc1OC [Example 3-2] | < 500 | –

More lines, main results first:

IC50 [1] [nM] | Structure (SMILES) | other results
< 500 | COc1ccc(-c2cc3nccn3c(Nc3ccc(Br)cc3F)n2)cc1OC [Example 11-87] | –
< 500 | COc1ccc(-c2cc3nccn3c(Nc3ccccc3S(C)(=O)=O)n2)cc1OC [Example 11-119] | –
< 500 | COc1ccc(Nc2nc(-c3ccc(OC)c(OC)c3)cc3nccn23)cc1F [Example 11-100] | –
< 500 | COc1ccc(-c2cc3nccn3c(Nc3cccc(S(=O)(=O)CCO)c3)n2)cc1OC [Example 11-27] | –
500 to 2000 | COc1ccc(N(C)c2nc(-c3ccc(OC)c(OC)c3)cc3nccn23)cc1 [Example 11-49] | –
500 to 2000 | COc1ccc(-c2cc3nccn3c(Nc3ccccc3C#N)n2)cc1OC [Example 11-121] | –
< 500 | COc1ccc(-c2cc3ncnn3c(Nc3ccc4cn[nH]c4c3)n2)cc1OC [Example 11-103] | –
< 500 | COc1ccc(-c2cc3nccn3c(Nc3cccc(C(C)=O)c3)n2)cc1OC [Example 11-59] | –
< 500 | COc1ccc(-c2cc3nccn3c(Sc3ccccc3OC)n2)cc1OC [Example 13-2] | –
< 500 | COc1ccc(-c2cc3nccn3c(N(C)c3cccc(Cl)c3)n2)cc1OC [Example 11-50] | –
< 500 | COc1ccc(-c2cc3nccn3c(Nc3ccc(C(=O)O)cc3)n2)cc1OC [Example 11-28] | –
< 500 | COc1ccc(-c2cc3nccn3c(Sc3ccc(/C=C/C(=O)O)c(C)c3)n2)cc1OC [Example 13-22] | –
< 500 | COc1ccc(-c2cc3nccn3c(Sc3ccccc3Br)n2)cc1OC [Example 13-6] | –
< 500 | COc1ccc(-c2cc3nccn3c(Nc3ccc4c(c3)CCC(C(=O)O)C4)n2)cc1OC (stereo not shown) [Example 11-5] | –
500 to 2000 | COc1ccc(-c2cc3nccn3c(N(C)c3ccccc3OC)n2)cc1OC [Example 11-25] | –
< 500 | COc1ccc(-c2cc3nccn3c(Sc3ncccn3)n2)cc1OC [Example 13-13] | –
< 500 | COc1ccc(-c2cc3nccn3c(Nc3ccc(Br)cc3C(=O)O)n2)cc1OC [Example 11-85] | –
< 500 | COc1ccc(Nc2nc(-c3ccc(OC)c(OC)c3)cc3nccn23)c(O)c1 [Example 11-93] | –
< 500 | COc1ccc(Nc2nc(-c3ccc(OC)c(OC)c3)cc3nccn23)c(C(=O)O)c1 [Example 11-75] | –
